These results are taken from patent US11518747B2, “Solid forms of an N-terminal domain androgen receptor inhibitor and uses thereof” (ESSA Pharma, Inc., priority 2020, dated 2022).

The structures appear in SMILES notation. In brackets after ≈: the same amount, converted by molar mass. Some results are limits rather than exact numbers.

Series [1] has as its system Androgen-induced PSA-luciferase activity. Briefly: Androgen-induced PSA (6.1 kb)-luciferase reporter assay in transiently transfected LNCaP cells. In kind it is cell-based. To be noted: Homo sapiens, R1881 1 nM, 24 h. The method, then: To determine the IC50, treatments were normalized to the maximum activity with androgen-induction (in the absence of test compounds, vehicle only) (Table 12).
Luciferase Assay: Lysates were thawed on ice then collected into V-bottom 96-well tissue culture plates. Lysates were centrifuged at 4° C. for 5 minutes at 4000 rpm. To measure luminescence of LNCaP cell lysates the Firefly Luciferase Assay System (Promega) was employed, according to manufacturer's protocol.
Comparisons between treatment and control groups were compared using Two-Way ANOVA with post-hoc Dunnett's and Tukey's tests. Differences were considered statistically significant at P values less than 0.05. Densitometric quantification of relative AR levels was determined by Image.
For orientation: Reporter assays use an easily measured gene product as a stand-in for the process of interest.

Series [2] can be described thus: Physical stability of solid forms (drying, storage, slurry; XRPD). Particulars: for XRPD result after stirring: RT, 4 d. In kind it is physicochemical. The procedure:
Based on experimental conditions to generate Material B and its drying studies, without being bound to any theory, Material B could be a solvated material which can convert to Material C upon drying.
In order to evaluate the relative stability between Form A and Material C, a competitive slurry was performed. About equal amounts (by mass) of Material C (mixture w/some Form A) and Form A were added to acetone so that solids persisted and were stirred at room temperature for 9 days. Solids were isolated by centrifugation using Spin-X centrifuge tubes equipped with a 0.45 μm nylon filter. Beige solids were observed. […] Material C could be an anhydrous material.
Further analyses including ^1H NMR and TGA were also collected on this amorphous sample (Table 10). The ^1H NMR spectrum was consistent with the chemical structure of Compound I and contains trace amount of DCM. By TGA (FIG. 9), about 1.0 wt % loss is observed from 45-200° C., which is likely due to the residual DCM and moisture in the material. The dramatic change in the slope of the TGA thermogram starting at 280° C. (onset) is likely associated with the decomposition of the material. […] A repeated rotary evaporation attempt from DCM solution generated disordered Compound I Form A (FIG. 7, second spectrum from bottom) after the sample was secondary dried at ambient temperature under vacuum for 3 days, which provides further evidence that amorphous Compound I is not physically stable.
Crystallization studies were performed on this disordered material (Table 10) and solids were stirred in acetone and H2O for 4 days at ambient conditions. Both experiments generated crystalline Form A (FIG. 10, bottom two spectra).

Series [3] can be described thus: Amorphous solubility by slow addition from organic stock into aqueous media (UV/Vis scattering, DLS). Format: physicochemical. To be noted: for solubility: kinetic from dmso stock. An excerpt: Solubility: Generally, the solubility of an amorphous form is higher than that of the corresponding crystal form, due to the lack of crystalline lattice forces in the amorphous state. Solubility of the amorphous form of Compound I was studied by slow addition of the amorphous form from an organic stock solution into the pH 6.5 phosphate-buffered saline (PBS) solution or 0.5% wt simulated intestinal fluid (SIF) in pH 6.5 PBS. When the amorphous solubility is reached, a drug-rich phase forms which typically scatters light (e.g., liquid-liquid phase separation or LLPS), which can be detected by scattering of UV/Visible light and/or by dynamic light scattering (DLS).
No scattering event prior to crystallization was observed.

A short description of series [4]: Dynamic vapor sorption (DVS) analysis. Further details: Hysteresis: unit not given here. Format: physicochemical. The method, then: In one embodiment, the crystalline forms are characterized by Dynamic Vapor Sorption (DVS). The DVS profile is typically expressed by a diagram plotting the sample relative humidity (RH) versus the change in mass (%). The DVS profile provides information on hygroscopicity of the crystalline form at different RH conditions.
DVS (dynamic vapor sorption) analysis was carried out on Form A (Table 2, FIG. 3).

Series [5] in a line: Equilibrium solubility acquired at 24 hours. Format: physicochemical. Particulars: organic solvent or mixture, thermodynamic from solid.
Series [6] can be described thus: Approximate solubility by solvent aliquot addition, visual inspection. Format: physicochemical. Particulars: organic solvent or mixture, thermodynamic from solid. The method, then:
The approximate solubility of Compound I in various organic solvents was determined by adding solvent aliquots to weighed samples Compound I. Weighed samples of Compound I were treated with aliquots of the test solvents or solvent mixtures at ambient temperature. Complete dissolution of the test material was determined by visual inspection. Solubility was estimated based on the total solvent volume used to provide complete dissolution. The actual solubility may be greater than the value calculated because of the use of solvent aliquots that were too large or due to a slow rate of dissolution. If complete dissolution was not achieved during the experiment, the solubility is expressed as “less than” (<). If complete dissolution was achieved by only one aliquot addition, the value is reported as “larger than” (>).

Setting [7] is: target RH 95.0 %, sample RH 96.0 %.

In series [1], `CC(C)(c1ccc(OC[C@H](O)CNS(C)(=O)=O)cc1)c1cc(Cl)c(OC[C@H](O)CCl)c(Cl)c1` [Reference Compound X] gave a half-inhibitory concentration (IC50) of 1050 nM.
The same measure, in the same setting: the same measure for `CC(O)(CS(=O)(=O)c1ccc(F)cc1)C(=O)Nc1ccc(C#N)c(C(F)(F)F)c1` (stereo not drawn) [Bicalutamide]: 306 nM.
Turning to `CC(C)(c1ccc(OCc2ccnc(NS(C)(=O)=O)n2)cc1)c1cc(Cl)c(OCCCl)c(C#N)c1` [amorphous form of Compound I], in series [2] (ambient (RT), desiccator, about 10 days), the “XRPD result after storage” value is listed as “disordered Form A”. Besides, the Physical stability entry in series [2] (ambient temperature) was “physically not stable”. Also, the solubility in series [3] (0.5% wt simulated intestinal fluid in PBS, fassgf or other biorelevant, 0.5% SIF (pH 6.5)) was > 25 µg/mL; in series [3] (phosphate-buffered saline, aqueous buffer, pH 6.5 PBS), > 2.5 µg/mL. In addition, the “Amorphous solubility relative to crystalline solubility” value in series [3] (simulated intestinal media) was “at least 20 ×”.
For `CC(C)(c1ccc(OCc2ccnc(NS(C)(=O)=O)n2)cc1)c1cc(Cl)c(OCCCl)c(C#N)c1` [Disordered], the “XRPD result after stirring” value in series [2] (H2O) and in series [2] (acetone) was “Form A” in each case.
Regarding `CC(C)(c1ccc(OCc2ccnc(NS(C)(=O)=O)n2)cc1)c1cc(Cl)c(OCCCl)c(C#N)c1` [Form A, N-{4-[(4-{2-[3-chloro-4-(2-chloroethoxy)-5-cyanophenyl]propan-2-yl}phenoxy)methyl]pyrimidin-2-yl}methanesulfonamide], in series [2] (Material C (with some Form A) and Form A in acetone, room temperature, 9 days), the “Relative stability, competitive slurry” value was “more stable than Material C”. Also, the “Solids recovered after DVS analysis, by XRPD” value in series [4] (after DVS cycle) is “consistent with Form A”. The “Total weight gain during sorption” value in series [4] (from 5% to 95% RH) amounted to 5.474%. The “Weight gain during sorption” value in series [4] (from 55% to 85% RH) was found to be 1.978 wt %; in series [4] (from 85% RH to 95% RH), 3.106 wt %. The “Weight loss during desorption” value in series [4] (from 95% RH to 5% RH) turned out to be 5.472%. The “Sorp Mass Change” value turned out to be 0.000% in series [4] (target RH 5.0 %, sample RH 4.9 %); 0.055% in series [4] (target RH 15.0 %, sample RH 15.4 %); 0.111% in series [4] (target RH 25.0 %, sample RH 24.9 %); 0.242% in series [4] (target RH 45.0 %, sample RH 44.8 %); 0.390% in series [4] (target RH 55.0 %, sample RH 54.5 %); 0.906% in series [4] (target RH 65.0 %, sample RH […]). Also, the “Sorp Mass Change” value in series [4] (target RH 75.0 %, sample RH 74.5 %) is listed as 1.567%; in series [4] (target RH 85.0 %, sample RH 84.7 %) it was 2.368%; in series [4] (setting [7]), 5.474%; in series [4] (target RH […], sample RH 34.5 %), 0.169%. In addition, the “Desorp Mass Change” value came out at 0.002% in series [4] (target RH 5.0 %, sample RH 5.4 %); 0.060% in series [4] (target RH 15.0 %, sample RH 16.1 %); 0.146% in series [4] (target RH 25.0 %, sample RH 25.6 %); 0.716% in series [4] (target RH 45.0 %, sample RH 45.6 %); 1.040% in series [4] (target RH 55.0 %, sample RH 55.5 %); 1.438% in series [4] (target RH 65.0 %, sample RH 65.6 %). The “Desorp Mass Change” value in series [4] (target RH 75.0 %, sample RH 75.5 %) was found to be 1.931%; in series [4] (target RH 85.0 %, sample RH 85.8 %), 2.072%; in series [4] (setting [7]) it was 5.474%; in series [4] (target RH […], sample RH 35.3 %) it was 0.277%. Moreover, the Hysteresis was 0.013 in series [4] (target RH 15.0 %); 0.036 in series [4] (target RH 25.0 %); 0.474 in series [4] (target RH 45.0 %); 0.650 in series [4] (target RH 55.0 %); 0.452 in series [4] (target RH 65.0 %); 0.364 in series [4] (target RH 75.0 %). For the same compound, the Hysteresis in series [4] (target RH 85.0 %) turned out to be 0.604; in series [4] (target RH […]), 0.108. The Hygroscopicity entry in series [4] (within 5%-55% RH) was “low hygroscopicity”; in series [4] (within 55%-85% RH) it was “limited hygroscopicity”; in series [4] (within 85%-95% RH), “significant hygroscopicity”.
With `CC(C)(c1ccc(OCc2ccnc(NS(C)(=O)=O)n2)cc1)c1cc(Cl)c(OCCCl)c(C#N)c1` [Material D], in series [2] (50-52° C., vacuum, 3 d), the “XRPD result after drying” value is reported as “desolvate into Form A”.
For the compound `CC(C)(c1ccc(OCc2ccnc(NS(C)(=O)=O)n2)cc1)c1cc(Cl)c(OCCCl)c(C#N)c1` [Material B], the Stability upon drying entry in series [2] is “unstable upon drying”. The “XRPD result after drying” value is “mixture of Form A and Material C” in series [2] (65-66° C., vacuum, 5 d); “disordered Material C” in series [2] (RT (ambient), on filter paper, 3 d).
`CC(C)(c1ccc(OCc2ccnc(NS(C)(=O)=O)n2)cc1)c1cc(Cl)c(OCCCl)c(C#N)c1` [Compound I, N-{4-[(4-{2-[3-chloro-4-(2-chloroethoxy)-5-cyanophenyl]propan-2-yl}phenoxy)methyl]pyrimidin-2-yl}methanesulfonamide]: the solubility at 24 h in series [5] (ACN) was 2040 µg/mL (≈ 3.81 mM); in series [5] (DMSO), > 12000 µg/mL; in series [5] (EtOAc), 1970 µg/mL (≈ 3.68 mM); in series [5] (EtOH), 170 µg/mL (≈ 0.317 mM); in series [5] (MeOH) it was 210 µg/mL (≈ 0.392 mM); in series [5] (acetone) it was 5300 µg/mL (≈ 9.9 mM). Moreover, in series [3], the Crystalline solubility entry was “very low”. The solubility in series [6] (dioxane (printed 'dioxant'), dioxant, ambient temperature, read-out: Solubility) is > 107000 µg/mL; in series [6] (DCM, ambient temperature, read-out: Solubility) it was 20000 µg/mL (≈ 37.4 mM); in series [6] (DMA, ambient temperature, read-out: Solubility), > 79000 µg/mL; in series [6] (Et2O, ambient temperature, read-out: Solubility), < 2000 µg/mL; in series [6] (MEK, ambient temperature, read-out: Solubility), 6000 µg/mL (≈ 11.2 mM); in series [6] (MTBE, ambient temperature, read-out: Solubility), < 1000 µg/mL. In addition, the solubility in series [6] (NMP, ambient temperature, read-out: Solubility) is > 117000 µg/mL; in series [6] (THF, ambient temperature, read-out: Solubility), 54000 µg/mL (≈ 101 mM); in series [6] (iPrOAc, ambient temperature, read-out: Solubility), < 1000 µg/mL; in series [6] (p-dioxane, from observations on samples at much larger scales, read-out: Approximate solubility), 35000 to 103000 µg/mL (≈ 65.4 to 192 mM); in series [6] (toluene, ambient temperature, read-out: Solubility), 1000 µg/mL (≈ 1.87 mM). The same compound gave an IC50 in series [1] of 535 nM.

As a reminder, the IC50 is the concentration that inhibits the measured activity by half. One may read the solubility as the concentration that dissolves in the medium under given conditions.
